Experimental data reported in US4157400A, “Terpenophenoxyalkylamines and pharmaceutical compositions and uses thereof” (MAR-PHA, Societe d'Etude et d'Exploitation de Marques, priority 1976, dated 1979).
Values after ≈ are worked out from the molar mass of the structure shown.

Assays:
[1] = Acute toxicity in the mouse (LD50); conditions: in vivo, male CD1 mouse, 3 days observation
Procedure: Acute toxicities of the compounds according to the invention have been determined in the male mouse CD1 (Charles RIVER) both intravenously and orally. The LD50 were calculated after observation for 3 days by the method of REED, JJ. and MUENCH, H. (Am. J. Hy, 27 493, 1938).

[2] = tested on: removed duodenum of the rat, contractions caused by acetylcholine; test: Spasmolytic activity on the detached duodenum of the rat, neurotrope (versus acetylcholine; Magnus)
Excerpt: (§1) The spasmolytic neurotropes inhibit the contractions of the organ caused by acetylcholine,whereas the musculotropes prevent the spasms induced by barium chloride. The following table summarises the results expressed as a 50% effective concentration (EC50) in mg/l.

[3] = tested on: removed duodenum of the rat, spasms induced by barium chloride; test: Spasmolytic activity on the detached duodenum of the rat, musculotrope (versus BaCl2; Magnus)
Excerpt: as §1

[4] = tested on: rabbit's heart; test: Coronaro-dilatory activity on the isolated rabbit heart (technique derived from Langendorff)
Procedure: In this technique, the survival liquid perfusing the heart contains 0.5 I.U./l post-hypophysis intended for permanently maintaining a slight vaso-constriction of the coronary vascular system. The products to be studied are administered in the region of the aortic canal in a volume of 1 cm^3 over a period of 1 minute. The results are expressed as a percentage variation of the coronary output after the injection of the product with respect to the initial output, the output being measured by integration of the frequency of drops of survival liquid escaping from the heart after having passed through the coronary system.

[5] = tested on: tachycardia induced by isoproterenol; test: Beta-sympatholytic activity: antagonism of isoproterenol-induced tachycardia in the non-anesthetized rabbit; format: in vivo; conditions: for Maximum Inhibition of tachycardia (as a %): isoproterenol 0.010 mg/kg i.v.
Procedure: The technique consists of evaluating the antagonism exerted by the products with regard to induced tachycardia, in an alert rabbit, by a sympatho-stimulant agent, isoproterenol, administered in a dose of 0.010 mg/kg intravenously. The animal is placed in a restraining box and the marginal vein of the ear is catheterized. The animal's electrocardiogram is picked up by two electrodes implanted in shunt DII and connected to a telemetric transmitter. A polygraph, coupled to a receiver, simultaneously records the electrocardiogram and the cardiac rhythm by integration of the waves R.
First of all, one makes certain of the stability and reproducibility of isoprenalinic tachycardia and the substance to be studied is administered. In the case of intravenous administration of the products, the injections of isoproterenol are then repeated 5 minutes later, then every 15 minutes, until the tachycardia returns to its initial intensity. When the products are administered orally, the injections of the beta-stimulant are repeated 15, 30, 45 and 60 minutes, then 2, 3, 5, 24 and 48 hours afterwards.
The beta-sympatholytic activity is expressed by the maximum percentage decrease of the tachycardia induced by isoproterenol. The total duration of the effect is also noted.

Compound | LD50 at 72 h ([1]; iv, intravenously) | LD50 at 72 h ([1]; po, orally) | EC50 [2] | EC50 [3] | Duration of Inhibiting effect ([5]; intravenous dose 0.5 mg/kg) | Maximum Inhibition of tachycardia (as a %) ([5]; intravenous dose 0.5 mg/kg) | Duration of Inhibiting effect ([5]; intravenous dose 1 mg/kg) | Maximum Inhibition of tachycardia (as a %) ([5]; intravenous dose 1 mg/kg) | Duration of Inhibiting effect ([5]; oral dose 17.5 mg/kg) | Maximum Inhibition of tachycardia (as a %) ([5]; oral dose 17.5 mg/kg) | Duration of Inhibiting effect ([5]; oral dose 35 mg/kg) | Maximum Inhibition of tachycardia (as a %) ([5]; oral dose 35 mg/kg) | Duration of Inhibiting effect ([5]; oral dose 75 mg/kg) | Maximum Inhibition of tachycardia (as a %) ([5]; oral dose 75 mg/kg) | Duration of Inhibiting effect ([5]; oral dose 150 mg/kg) | Maximum Inhibition of tachycardia (as a %) ([5]; oral dose 150 mg/kg) | further results
CC(C)NCC(O)COc1ccccc1[C@@H]1C[C@H]2CC[C@@H]1C2 (relative stereo) [Example 1, 1-isopropylamino-3-[2-(2-norbornyl exo)phenoxy]propan-2-ol] | 60 mg/kg | 800 mg/kg | 0.18 µg/mL (≈ 0.593 µM) | 0.15 µg/mL (≈ 0.494 µM) | more than 2 hrs | 54% | more than 2 hrs | 86% | approx. 24 hrs | 73% | approx. 48 hrs | 88% | approx. 48 hrs | 80% | more than 48 hrs | 82% | activation at 0.003 µg/mL ([4]; Oryctolagus cuniculus, dose 0.003 mg/l, increase (+) versus initial output, post-hypophysis 0.5 I.U./l, read-out: % Variation of coronary output): 13%; activation at 0.01 µg/mL ([4]; Oryctolagus cuniculus, dose 0.010 mg/l, increase (+) versus initial output, post-hypophysis 0.5 I.U./l, read-out: % Variation of coronary output): 57%; activation at 0.03 µg/mL ([4]; Oryctolagus cuniculus, dose 0.030 mg/l, increase (+) versus initial output, post-hypophysis 0.5 I.U./l, read-out: % Variation of coronary output): 133%; activation at 0.1 µg/mL ([4]; Oryctolagus cuniculus, dose 0.100 mg/l, increase (+) versus initial output, post-hypophysis 0.5 I.U./l, read-out: % Variation of coronary output): 225%; Duration of the effect ([4]; dose 0.003 mg/l): 3 min; Duration of the effect ([4]; dose 0.010 mg/l): 3 min; Duration of the effect ([4]; dose 0.030 mg/l): 15 min; Duration of the effect ([4]; dose 0.100 mg/l): 9 min; coronaro-dilatory effects (in words) ([4]; isolated rabbit heart): considerable coronaro-dilatory effects, whose intensity and duration clearly increase with the concentration; Duration of Inhibiting effect ([5]; intravenous dose 0.1 mg/kg): approx. 50 minutes; Maximum Inhibition of tachycardia (as a %) ([5]; intravenous dose 0.1 mg/kg): 24%; Duration of Inhibiting effect ([5]; intravenous dose 0.3 mg/kg): approx 21/2; Maximum Inhibition of tachycardia (as a %) ([5]; intravenous dose 0.3 mg/kg): 67%; Duration of Inhibiting effect ([5]; oral dose 9 mg/kg): more than 3 hrs; Maximum Inhibition of tachycardia (as a %) ([5]; oral dose 9 mg/kg): 40%
CC(C)NCC(O)COc1ccccc1[C@H]1C[C@H]2CC[C@@H]1C2 (relative stereo) [Example 2, 1-isopropylamino-3-[2-(2-norbornyl endo)phenoxy]propan-2-ol] | 62 mg/kg | 675 mg/kg | 0.3 µg/mL (≈ 0.989 µM) | 0.04 µg/mL (≈ 0.132 µM) | approx. 40 mins | 20% | approx. 4 hrs | 67% | approx. 24 hrs | 64% | approx. 48 hrs | 60% | approx. 48 hrs | 80% | approx. 48 hrs | 81% | 
